According to US20030086900A1, “Method of treatment using ligand-immunogen conjugates” (priority 2001, published 2003):

Test system: M109 cells
Assay: Survival of mice with M109 lung tumor implants, folate-MDP therapy
Assay type: in vivo
Conditions: female Balb/c mice, M109 cells i.p.; folate-MDP 15 nmoles/kg, IL-2 5,000 IU/dose, IFN-α 25,000 U/dose; injections on days 7, 8, 9, 11, 14
Method: Female Balb/c mice were injected on day 0 with 5×10^5 M109 cells, a syngeneic lung cancer cell line that expresses high levels of the folate receptor. In an effort to reduce the time required to obtain long-term survival data, the tumor cells were implanted intraperitoneally close to the liver. Cancer loci were then allowed to attach and grow. The animals were then injected with PBS (control) or were co-injected with folate-muramyl dipeptide (MDP) (15 nmoles/kg), IL-2 (5,000 IU/dose), and IFN-α (25,000 U/dose) on days 7, 8, 9, 11, and 14 after tumor cell implantation. Folate was conjugated to MDP via a gamma carboxyl-linked ethylene diamine bridge. Additional animals were injected with 80 nmoles/kg MDP, 15 nmoles/kg folate-MDP, or 80 nmoles/kg MDP and IL-2 and IFN-α at the concentrations specified above. The efficacy of this immunotherapy was evaluated by monitoring survival as a function of time of folate-MDP treated mice compared to control animals.

Substance: folate-muramyl dipeptide [folate-MDP]
- effect on long-term survival of tumor-bearing mice: negligible effect
